Test results taken from PubChem BioAssay AID328 (DTP/NCI, 2004).
Several values for one entry are separate records, joined by “and”; a condition that tells them apart may be missing. Identical values can stand only once. Toxic doses and inconclusive results are not listed.

Tested on: BDF1 mice, P388 leukemia ip, median survival T/C
Test: NCI In Vivo Anticancer Drug Screen. Data for tumor model P388 Leukemia (intraperitoneal) in B6D2F1 (BDF1) mice
Conditions: endpoint: median survival time, higher = longer survival
Method in brief: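 Each value expresses how treatment altered survival: treated-mouse outcome over vehicle-mouse outcome, both groups bearing the transplanted tumour.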

[1] = dose: 100.0 mg/kg/injection, schedule: Q04DX003 (ip), vehicle: Klucel (hydroxypropylcellulose) (HPC)
[2] = dose: 200.0 mg/kg/injection, schedule: Q04DX003 (ip), vehicle: Klucel (hydroxypropylcellulose) (HPC)
[3] = dose: 100.0 mg/kg/injection, schedule: Q01DX001 (ip), vehicle: Klucel (hydroxypropylcellulose) (HPC)
[4] = dose: 200.0 mg/kg/injection, schedule: Q01DX001 (ip), vehicle: Klucel (hydroxypropylcellulose) (HPC)
[5] = dose: 50.0 mg/kg/injection, schedule: Q01DX009 (ip), vehicle: saline
[6] = dose: 100.0 mg/kg/injection, schedule: Q04DX003 (ip), vehicle: saline
[7] = dose: 200.0 mg/kg/injection, schedule: Q04DX003 (ip), vehicle: saline
[8] = dose: 50.0 mg/kg/injection, schedule: Q04DX003 (ip), vehicle: saline
[9] = dose: 50.0 mg/kg/injection, schedule: Q01DX009 (ip), vehicle: saline with Tween-80
[10] = dose: 100.0 mg/kg/injection, schedule: Q01DX009 (ip), vehicle: saline with Tween-80
[11] = dose: 12.5 mg/kg/injection, schedule: Q04DX003 (ip), vehicle: saline with Tween-80
[12] = dose: 25.0 mg/kg/injection, schedule: Q04DX003 (ip), vehicle: saline with Tween-80
[13] = dose: 25.0 mg/kg/injection, schedule: Q01DX009 (ip), vehicle: saline with Tween-80
[14] = dose: 400.0 mg/kg/injection, schedule: Q01DX001 (ip), vehicle: Klucel (hydroxypropylcellulose) (HPC)

With `CCN(CC)CCNc1ccc(N=Nc2ccc(SC)cc2)c2ccccc12` the T/C (dose: 25.0 mg/kg/injection, schedule: Q01DX009 (ip), vehicle: Klucel (hydroxypropylcellulose) (HPC)) was 105 % of control, the T/C (dose: 50.0 mg/kg/injection, schedule: Q01DX009 (ip), vehicle: Klucel (hydroxypropylcellulose) (HPC)) was 100 % of control and the T/C (dose: 50.0 mg/kg/injection, schedule: Q04DX003 (ip), vehicle: Klucel (hydroxypropylcellulose) (HPC)) was 100 % of control. The T/C (dose: 100.0 mg/kg/injection, schedule: Q01DX009 (ip), vehicle: Klucel (hydroxypropylcellulose) (HPC)) was 105 % of control, the T/C [1] was 104 % of control and the T/C [2] was 90 % of control.

With `CC1CCCC2(CN=C(Nc3ccccc3)O2)C1` (stereo unspecified) the T/C [3] was 99 % of control and the T/C [4] was 114 % of control.

`COC(=O)C1(C)CCC(c2ccc(OC)cc2)CC1=O` (stereo unspecified) was tested, and the T/C [5] was 86 % of control, the T/C (dose: 100.0 mg/kg/injection, schedule: Q01DX009 (ip), vehicle: saline) was 100 % of control and the T/C [6] was 100 % of control. For the same molecule, the T/C (dose: 200.0 mg/kg/injection, schedule: Q01DX009 (ip), vehicle: saline) was 109 % of control and the T/C [7] was 103 % of control.

For `O=C(O)c1ccc(C(=O)O)c([N+](=O)[O-])c1`, the T/C [8] was 100 % of control, the T/C [6] was 100 % of control and the T/C [7] was 100 % of control.

With `CC(C)[C@]12O[C@H]1[C@@H]1O[C@]13[C@]1(O[C@H]1C[C@H]1C4=C(C(=O)OC4)[C@@H](O)C[C@@]13C)[C@@H]2O` the T/C (dose: 0.03 mg/kg/injection, schedule: Q01DX009 (ip), vehicle: saline + alcohol) was 100 % of control and 106 % of control, the T/C (dose: 0.06 mg/kg/injection, schedule: Q01DX009 (ip), vehicle: saline + alcohol) was 113 % of control and 117 % of control and the T/C (dose: 0.13 mg/kg/injection, schedule: Q01DX009 (ip), vehicle: saline + alcohol) was 120 % of control. For the same molecule, the T/C (dose: 0.25 mg/kg/injection, schedule: Q01DX009 (ip), vehicle: saline + alcohol) was 150 % of control, the T/C (dose: 3.8 micrograms/kg/injection, schedule: Q01DX009 (ip), vehicle: saline) was 104 % of control and the T/C (dose: 6.5 micrograms/kg/injection, schedule: Q01DX009 (ip), vehicle: saline) was 104 % of control. The T/C (dose: 13.0 micrograms/kg/injection, schedule: Q01DX009 (ip), vehicle: saline) was 95 % of control, the T/C (dose: 25.0 micrograms/kg/injection, schedule: Q01DX009 (ip), vehicle: saline) was 109 % of control and the T/C (dose: 100.0 micrograms/kg/injection, schedule: Q01DX009 (ip), vehicle: saline + alcohol) was 90 % of control.

`O=C1c2ccccc2C(=O)C(N2CCOCC2)C1Cl` (stereo unspecified) was tested, and the T/C (dose: 3.0 mg/kg/injection, schedule: Q01DX009 (ip), vehicle: saline with Tween-80) was 98 % of control, the T/C (dose: 6.0 mg/kg/injection, schedule: Q01DX009 (ip), vehicle: saline with Tween-80) was 97 % of control and the T/C (dose: 12.0 mg/kg/injection, schedule: Q01DX009 (ip), vehicle: saline with Tween-80) was 100 % of control.

In the case of `C/C=C/C=C/C(=O)c1ccc(OC)cc1O`, the T/C [9] is reported as 109 % of control and the T/C [10] is reported as 109 % of control.

`C1=CC=CCC=C1` was tested, and the T/C (dose: 12.5 mg/kg/injection, schedule: Q04DX003 (ip), vehicle: saline) was 100 % of control, the T/C (dose: 25.0 mg/kg/injection, schedule: Q01DX009 (ip), vehicle: saline) was 150 % of control and the T/C (dose: 25.0 mg/kg/injection, schedule: Q04DX003 (ip), vehicle: saline) was 113 % of control. For the same molecule, the T/C [5] was 111 % of control and the T/C [8] was 109 % of control.

`N#CSCc1ccc(CSC#N)c(Cl)c1` was tested, and the T/C (dose: 1.56 mg/kg/injection, schedule: Q01DX009 (ip), vehicle: saline with Tween-80) was 118 % of control and the T/C (dose: 6.25 mg/kg/injection, schedule: Q01DX009 (ip), vehicle: saline with Tween-80) was 100 % of control.

In the case of `CCN(CC)CCOC(=O)c1ccc([N+](=O)[O-])c2ccccc12`, the T/C (dose: 50.0 mg/kg/injection, schedule: Q01DX005 (ip), vehicle: saline with Tween-80) is reported as 98 % of control, the T/C (dose: 100.0 mg/kg/injection, schedule: Q01DX005 (ip), vehicle: saline with Tween-80) is reported as 88 % of control and the T/C (dose: 200.0 mg/kg/injection, schedule: Q01DX005 (ip), vehicle: saline with Tween-80) is reported as 88 % of control.

With `COc1ccc(C2C=C(C)Oc3c2c(=O)oc2ccccc32)cc1OC` (stereo unspecified) the T/C (dose: 6.25 mg/kg/injection, schedule: Q04DX003 (ip), vehicle: water) was 98 % of control, the T/C (dose: 12.5 mg/kg/injection, schedule: Q01DX009 (ip), vehicle: water) was 91 % of control and the T/C (dose: 12.5 mg/kg/injection, schedule: Q04DX003 (ip), vehicle: water) was 104 % of control. For the same molecule, the T/C (dose: 25.0 mg/kg/injection, schedule: Q04DX003 (ip), vehicle: water) was 100 % of control, the T/C (dose: 50.0 mg/kg/injection, schedule: Q04DX003 (ip), vehicle: water) was 100 % of control and the T/C (dose: 100.0 mg/kg/injection, schedule: Q04DX003 (ip), vehicle: water) was 88 % of control and 96 % of control. For the same molecule, the T/C (dose: 200.0 mg/kg/injection, schedule: Q04DX003 (ip), vehicle: water) was 94 % of control and the T/C (dose: 400.0 mg/kg/injection, schedule: Q04DX003 (ip), vehicle: water) was 90 % of control.

`O=C1C(=C(C(F)(F)F)C(F)(F)F)C2CCC1C2` (stereo unspecified) was tested, and the T/C (dose: 6.25 mg/kg/injection, schedule: Q04DX003 (ip), vehicle: saline with Tween-80) was 110 % of control, the T/C [11] was 100 % of control and the T/C [12] was 90 % of control.

With `C[CH2][Ge]([CH2]C)[CH2]/C=C\[CH2][Ge]([CH2]C)[CH2]C` the T/C (dose: 12.5 mg/kg/injection, schedule: Q01DX009 (ip), vehicle: saline with Tween-80) was 100 % of control, the T/C [13] was 89 % of control and the T/C [9] was 100 % of control.

With `CCCCC(=O)N(c1ccc(Nc2c3ccccc3nc3cc([N+](=O)[O-])ccc23)cc1)S(C)(=O)=O` the T/C (dose: 0.44 mg/kg/injection, schedule: Q01DX009 (ip), vehicle: saline with Tween-80) was 167 % of control, the T/C (dose: 0.66 mg/kg/injection, schedule: Q01DX009 (ip), vehicle: saline with Tween-80) was 180 % of control and the T/C (dose: 1.0 mg/kg/injection, schedule: Q01DX009 (ip), vehicle: saline with Tween-80) was 194 % of control. For the same molecule, the T/C (dose: 1.5 mg/kg/injection, schedule: Q01DX009 (ip), vehicle: saline with Tween-80) was 205 % of control, the T/C (dose: 2.2 mg/kg/injection, schedule: Q04DX003 (ip), vehicle: saline with Tween-80) was 154 % of control and the T/C (dose: 3.3 mg/kg/injection, schedule: Q04DX003 (ip), vehicle: saline with Tween-80) was 150 % of control. The T/C (dose: 5.0 mg/kg/injection, schedule: Q04DX003 (ip), vehicle: saline with Tween-80) was 186 % of control, the T/C [11] was 218 % of control and the T/C (dose: 22.0 mg/kg/injection, schedule: Q04DX003 (ip), vehicle: saline with Tween-80) was 250 % of control. The T/C [12] was 245 % of control, the T/C (dose: 33.0 mg/kg/injection, schedule: Q04DX003 (ip), vehicle: saline with Tween-80) was 175 % of control and 209 % of control and the T/C (dose: 50.0 mg/kg/injection, schedule: Q04DX003 (ip), vehicle: saline with Tween-80) was 225 % of control and 272 % of control and 181 % of control. For the same molecule, the T/C (dose: 75.0 mg/kg/injection, schedule: Q04DX003 (ip), vehicle: saline with Tween-80) was 109 % of control and 204 % of control.

In the case of `Nc1ncccc1C(=O)O`, the T/C (dose: 62.5 mg/kg/injection, schedule: Q01DX010 (ip), vehicle: saline) is reported as 90 % of control, the T/C (dose: 125.0 mg/kg/injection, schedule: Q01DX010 (ip), vehicle: saline) is reported as 100 % of control and the T/C (dose: 250.0 mg/kg/injection, schedule: Q01DX010 (ip), vehicle: carboxymethylcellulose (CMC)) is reported as 113 % of control. The T/C (dose: 500.0 mg/kg/injection, schedule: Q01DX010 (ip), vehicle: carboxymethylcellulose (CMC)) was 100 % of control.

With `O=C(O)c1cc(C(=O)O)cc([N+](=O)[O-])c1` the T/C [13] was 100 % of control, the T/C [9] was 100 % of control and the T/C [10] was 90 % of control.

For `O=C(NCC(O)CCl)c1ccc([N+](=O)[O-])cc1` (stereo unspecified), the T/C [3] was 100 % of control, the T/C [4] was 100 % of control and the T/C [14] was 110 % of control.

For `O=C1c2ccccc2CCC12OC2c1ccc(Cl)cc1` (stereo unspecified), the T/C [3] was 95 % of control, the T/C [1] was 100 % of control and the T/C (dose: 100.0 mg/kg/injection, schedule: Q04DX003 (ip), vehicle: saline with Tween-80) was 91 % of control. For the same molecule, the T/C [4] was 100 % of control, the T/C [2] was 104 % of control and the T/C (dose: 200.0 mg/kg/injection, schedule: Q04DX003 (ip), vehicle: saline with Tween-80) was 104 % of control. The T/C [14] was 90 % of control, the T/C (dose: 400.0 mg/kg/injection, schedule: Q04DX003 (ip), vehicle: Klucel (hydroxypropylcellulose) (HPC)) was 104 % of control and the T/C (dose: 400.0 mg/kg/injection, schedule: Q04DX003 (ip), vehicle: saline with Tween-80) was 95 % of control.
